The record followed here is ChEMBL document CHEMBL5303573, “Mapping human microbiome drug metabolism by gut bacteria and their genes” (Nature, 2019).

The nature of one data set: The drug is tested on Bifidobacterium longum subsp. Infantis strain: CCUG52486 for biotransformation. The drug concentrations were measured before and after a 12-h incubation by liquid-chromatography-coupled mass spectrometry (LC–MS). As to conditions: 2 µM.
As for `CN1[C@@H]2CC[C@H]1C[C@@H](OC(=O)C(CO)c1ccccc1)C2` (stereo partly drawn) [ATROPINE], the “Bacterial Biotransformation” value is given as “Compound NOT metabolized”.

`COc1ccc([C@@H]2Sc3ccccc3N(CCN(C)C)C(=O)[C@@H]2OC(C)=O)cc1` [DILTIAZEM]: the “Bacterial Biotransformation” value is reported as “Compound metabolized”.

Turning to `CC(=O)CCCCn1c(=O)c2c(ncn2C)n(C)c1=O` [PENTOXIFYLLINE], the “Bacterial Biotransformation” value is “Compound NOT metabolized”.

For `CN1CCC(OC(c2ccccc2)c2ccccc2)CC1`, the “Bacterial Biotransformation” value was “Compound NOT metabolized”.

The next data set is described as follows: The drug is tested on Bifidobacterium ruminantium strain: fecal isolate for biotransformation. The drug concentrations were measured before and after a 12-h incubation by liquid-chromatography-coupled mass spectrometry (LC–MS). Particulars: 2 µM.
In the case of `CN1[C@@H]2CC[C@H]1C[C@@H](OC(=O)C(CO)c1ccccc1)C2` (stereo partly drawn) [ATROPINE], the “Bacterial Biotransformation” value is on record as “Compound NOT metabolized”.

As to `COc1ccc([C@@H]2Sc3ccccc3N(CCN(C)C)C(=O)[C@@H]2OC(C)=O)cc1` [DILTIAZEM], the “Bacterial Biotransformation” value was “Compound NOT metabolized”.

Regarding `CN1CCC(OC(c2ccccc2)c2ccccc2)CC1`, the “Bacterial Biotransformation” value is recorded as “Compound metabolized”.

The next data set in a line: The drug is tested on Collinsella aerofaciens strain: ATCC25986 for biotransformation. The drug concentrations were measured before and after a 12-h incubation by liquid-chromatography-coupled mass spectrometry (LC–MS). Particulars: 2 µM.
`CN1[C@@H]2CC[C@H]1C[C@@H](OC(=O)C(CO)c1ccccc1)C2` (stereo partly drawn) [ATROPINE]: the “Bacterial Biotransformation” value is reported as “Compound NOT metabolized”.

As to `COc1ccc([C@@H]2Sc3ccccc3N(CCN(C)C)C(=O)[C@@H]2OC(C)=O)cc1` [DILTIAZEM], the “Bacterial Biotransformation” value is on record as “Compound metabolized”.

`CC(=O)CCCCn1c(=O)c2c(ncn2C)n(C)c1=O` [PENTOXIFYLLINE]: the “Bacterial Biotransformation” value is “Compound NOT metabolized”.

As for `CN1CCC(OC(c2ccccc2)c2ccccc2)CC1`, the “Bacterial Biotransformation” value is listed as “Compound NOT metabolized”.

The next data set in a line: The drug is tested on Bacteroides dorei strain: DSM17855 for biotransformation. The drug concentrations were measured before and after a 12-h incubation by liquid-chromatography-coupled mass spectrometry (LC–MS). As to conditions: phocaeicola dorei, 2 µM.
As for `CN1[C@@H]2CC[C@H]1C[C@@H](OC(=O)C(CO)c1ccccc1)C2` (stereo partly drawn) [ATROPINE], the “Bacterial Biotransformation” value is “Compound NOT metabolized”.

Turning to `COc1ccc([C@@H]2Sc3ccccc3N(CCN(C)C)C(=O)[C@@H]2OC(C)=O)cc1` [DILTIAZEM], the “Bacterial Biotransformation” value is reported as “Compound metabolized”.

Take `CC(=O)CCCCn1c(=O)c2c(ncn2C)n(C)c1=O` [PENTOXIFYLLINE]: the “Bacterial Biotransformation” value is listed as “Compound NOT metabolized”.

In the case of `CN1CCC(OC(c2ccccc2)c2ccccc2)CC1`, the “Bacterial Biotransformation” value is “Compound NOT metabolized”.

The next data set can be described thus: The drug is tested on Bacteroides finegoldii strain: DSM17565 for biotransformation. The drug concentrations were measured before and after a 12-h incubation by liquid-chromatography-coupled mass spectrometry (LC–MS). Particulars: 2 µM.
For `CN1[C@@H]2CC[C@H]1C[C@@H](OC(=O)C(CO)c1ccccc1)C2` (stereo partly drawn) [ATROPINE], the “Bacterial Biotransformation” value is listed as “Compound NOT metabolized”.

Take `COc1ccc([C@@H]2Sc3ccccc3N(CCN(C)C)C(=O)[C@@H]2OC(C)=O)cc1` [DILTIAZEM]: the “Bacterial Biotransformation” value is recorded as “Compound metabolized”.

Regarding `CN1CCC(OC(c2ccccc2)c2ccccc2)CC1`, the “Bacterial Biotransformation” value is “Compound NOT metabolized”.

The next data set can be described thus: The drug is tested on Bacteroides sp. WH2 strain: WH2 for biotransformation. The drug concentrations were measured before and after a 12-h incubation by liquid-chromatography-coupled mass spectrometry (LC–MS). Particulars: bacteroides sp. wh2, 12 h, 2 µM.
As to `CN1[C@@H]2CC[C@H]1C[C@@H](OC(=O)C(CO)c1ccccc1)C2` (stereo partly drawn) [ATROPINE], the “Bacterial Biotransformation” value is reported as “Compound NOT metabolized”.

As to `COc1ccc([C@@H]2Sc3ccccc3N(CCN(C)C)C(=O)[C@@H]2OC(C)=O)cc1` [DILTIAZEM], the “Bacterial Biotransformation” value is given as “Compound metabolized”.

Regarding `CC(=O)CCCCn1c(=O)c2c(ncn2C)n(C)c1=O` [PENTOXIFYLLINE], the “Bacterial Biotransformation” value is listed as “Compound NOT metabolized”.

Regarding `CN1CCC(OC(c2ccccc2)c2ccccc2)CC1`, the “Bacterial Biotransformation” value is on record as “Compound NOT metabolized”.

Another data set can be described thus: The drug is tested on Bacteroides xylanisolvens strain: DSM18836 for biotransformation. The drug concentrations were measured before and after a 12-h incubation by liquid-chromatography-coupled mass spectrometry (LC–MS). As to conditions: 2 µM.
Take `CN1[C@@H]2CC[C@H]1C[C@@H](OC(=O)C(CO)c1ccccc1)C2` (stereo partly drawn) [ATROPINE]: the “Bacterial Biotransformation” value is recorded as “Compound NOT metabolized”.

Take `COc1ccc([C@@H]2Sc3ccccc3N(CCN(C)C)C(=O)[C@@H]2OC(C)=O)cc1` [DILTIAZEM]: the “Bacterial Biotransformation” value was “Compound metabolized”.

On to `CC(=O)CCCCn1c(=O)c2c(ncn2C)n(C)c1=O` [PENTOXIFYLLINE], for which the “Bacterial Biotransformation” value was “Compound NOT metabolized”.

Another data set in a line: The drug is tested on Anaerotruncus colihominis strain: DSM17241 for biotransformation. The drug concentrations were measured before and after a 12-h incubation by liquid-chromatography-coupled mass spectrometry (LC–MS). Particulars: 2 µM.
For the compound `CN1[C@@H]2CC[C@H]1C[C@@H](OC(=O)C(CO)c1ccccc1)C2` (stereo partly drawn) [ATROPINE], the “Bacterial Biotransformation” value is given as “Compound NOT metabolized”.

`COc1ccc([C@@H]2Sc3ccccc3N(CCN(C)C)C(=O)[C@@H]2OC(C)=O)cc1` [DILTIAZEM]: the “Bacterial Biotransformation” value is “Compound NOT metabolized”.

For the compound `CC(=O)CCCCn1c(=O)c2c(ncn2C)n(C)c1=O` [PENTOXIFYLLINE], the “Bacterial Biotransformation” value was “Compound NOT metabolized”.

Take `CN1CCC(OC(c2ccccc2)c2ccccc2)CC1`: the “Bacterial Biotransformation” value is given as “Compound NOT metabolized”.

Another data set can be described thus: The drug is tested on Eubacterium hallii strain: DSM3353 for biotransformation. The drug concentrations were measured before and after a 12-h incubation by liquid-chromatography-coupled mass spectrometry (LC–MS). As to conditions: anaerobutyricum hallii, 2 µM.
For the compound `CN1[C@@H]2CC[C@H]1C[C@@H](OC(=O)C(CO)c1ccccc1)C2` (stereo partly drawn) [ATROPINE], the “Bacterial Biotransformation” value is given as “Compound NOT metabolized”.

As for `COc1ccc([C@@H]2Sc3ccccc3N(CCN(C)C)C(=O)[C@@H]2OC(C)=O)cc1` [DILTIAZEM], the “Bacterial Biotransformation” value is recorded as “Compound metabolized”.

With `CC(=O)CCCCn1c(=O)c2c(ncn2C)n(C)c1=O` [PENTOXIFYLLINE], the “Bacterial Biotransformation” value was “Compound NOT metabolized”.

In the case of `CN1CCC(OC(c2ccccc2)c2ccccc2)CC1`, the “Bacterial Biotransformation” value is “Compound NOT metabolized”.

A further data set can be described thus: The drug is tested on Eubacterium ventriosum strain: ATCC27560 for biotransformation. The drug concentrations were measured before and after a 12-h incubation by liquid-chromatography-coupled mass spectrometry (LC–MS). As to conditions: 2 µM. Format: ADME. The arrangement: dose 2 uM, timepoint 0 vs 12 hours.
In the case of `CN1[C@@H]2CC[C@H]1C[C@@H](OC(=O)C(CO)c1ccccc1)C2` (stereo partly drawn) [ATROPINE], the “Bacterial Biotransformation” value is “Compound NOT metabolized”.

Take `COc1ccc([C@@H]2Sc3ccccc3N(CCN(C)C)C(=O)[C@@H]2OC(C)=O)cc1` [DILTIAZEM]: the “Bacterial Biotransformation” value is on record as “Compound NOT metabolized”.

Take `CC(=O)CCCCn1c(=O)c2c(ncn2C)n(C)c1=O` [PENTOXIFYLLINE]: the “Bacterial Biotransformation” value is “Compound NOT metabolized”.

Turning to `CN1CCC(OC(c2ccccc2)c2ccccc2)CC1`, the “Bacterial Biotransformation” value was “Compound NOT metabolized”.

The next data set is described as follows: The drug is tested on Ruminococcus gnavus strain: ATCC29149 for biotransformation. The drug concentrations were measured before and after a 12-h incubation by liquid-chromatography-coupled mass spectrometry (LC–MS). Particulars: mediterraneibacter gnavus, 2 µM.
As for `CN1[C@@H]2CC[C@H]1C[C@@H](OC(=O)C(CO)c1ccccc1)C2` (stereo partly drawn) [ATROPINE], the “Bacterial Biotransformation” value is “Compound NOT metabolized”.

`COc1ccc([C@@H]2Sc3ccccc3N(CCN(C)C)C(=O)[C@@H]2OC(C)=O)cc1` [DILTIAZEM]: the “Bacterial Biotransformation” value is listed as “Compound NOT metabolized”.

`CC(=O)CCCCn1c(=O)c2c(ncn2C)n(C)c1=O` [PENTOXIFYLLINE]: the “Bacterial Biotransformation” value was “Compound NOT metabolized”.

Take `CN1CCC(OC(c2ccccc2)c2ccccc2)CC1`: the “Bacterial Biotransformation” value is “Compound NOT metabolized”.

A further data set in a line: The drug is tested on Providencia stuartii strain: ATCC25827 for biotransformation. The drug concentrations were measured before and after a 12-h incubation by liquid-chromatography-coupled mass spectrometry (LC–MS). Particulars: 2 µM.
As for `CC(=O)CCCCn1c(=O)c2c(ncn2C)n(C)c1=O` [PENTOXIFYLLINE], the “Bacterial Biotransformation” value is on record as “Compound NOT metabolized”.

As for `CN1CCC(OC(c2ccccc2)c2ccccc2)CC1`, the “Bacterial Biotransformation” value was “Compound NOT metabolized”.

For the next data set the following is noted: bacteroides fragilis, 12 h, 2 µM.
Description: The drug is tested on Bacteroides fragilis strain: NCTC 9343 for biotransformation. The drug concentrations were measured before and after a 12-h incubation by liquid-chromatography-coupled mass spectrometry (LC–MS)
With `CN1[C@@H]2CC[C@H]1C[C@@H](OC(=O)C(CO)c1ccccc1)C2` (stereo partly drawn) [ATROPINE], the “Bacterial Biotransformation” value is listed as “Compound NOT metabolized”.

In the case of `COc1ccc([C@@H]2Sc3ccccc3N(CCN(C)C)C(=O)[C@@H]2OC(C)=O)cc1` [DILTIAZEM], the “Bacterial Biotransformation” value is on record as “Compound metabolized”.

Regarding `CC(=O)CCCCn1c(=O)c2c(ncn2C)n(C)c1=O` [PENTOXIFYLLINE], the “Bacterial Biotransformation” value is reported as “Compound NOT metabolized”.

With `CN1CCC(OC(c2ccccc2)c2ccccc2)CC1`, the “Bacterial Biotransformation” value is on record as “Compound NOT metabolized”.

The conditions of another data set: bacteroides intestinalis, 12 h, 2 µM.
Description: The drug is tested on Bacteroides intestinalis strain: DSM17393 for biotransformation. The drug concentrations were measured before and after a 12-h incubation by liquid-chromatography-coupled mass spectrometry (LC–MS)
As for `CN1[C@@H]2CC[C@H]1C[C@@H](OC(=O)C(CO)c1ccccc1)C2` (stereo partly drawn) [ATROPINE], the “Bacterial Biotransformation” value is reported as “Compound NOT metabolized”.

Regarding `COc1ccc([C@@H]2Sc3ccccc3N(CCN(C)C)C(=O)[C@@H]2OC(C)=O)cc1` [DILTIAZEM], the “Bacterial Biotransformation” value is “Compound metabolized”.

In the case of `CC(=O)CCCCn1c(=O)c2c(ncn2C)n(C)c1=O` [PENTOXIFYLLINE], the “Bacterial Biotransformation” value is “Compound NOT metabolized”.

Take `CN1CCC(OC(c2ccccc2)c2ccccc2)CC1`: the “Bacterial Biotransformation” value is “Compound NOT metabolized”.

For another data set the following is noted: bacteroides thetaiotaomicron, 12 h, 2 µM.
Description: The drug is tested on Bacteroides thetaiotaomicron strain: 3731 for biotransformation. The drug concentrations were measured before and after a 12-h incubation by liquid-chromatography-coupled mass spectrometry (LC–MS)
On to `COc1ccc([C@@H]2Sc3ccccc3N(CCN(C)C)C(=O)[C@@H]2OC(C)=O)cc1` [DILTIAZEM], for which the “Bacterial Biotransformation” value is on record as “Compound metabolized”.

For `CC(=O)CCCCn1c(=O)c2c(ncn2C)n(C)c1=O` [PENTOXIFYLLINE], the “Bacterial Biotransformation” value is “Compound NOT metabolized”.

Regarding `CN1CCC(OC(c2ccccc2)c2ccccc2)CC1`, the “Bacterial Biotransformation” value is “Compound NOT metabolized”.

The conditions of another data set: limosilactobacillus reuteri cf48-3a, 12 h, 2 µM.
Description: The drug is tested on Lactobacillus reuteri CF48-3A strain: BEI HM-102 for biotransformation. The drug concentrations were measured before and after a 12-h incubation by liquid-chromatography-coupled mass spectrometry (LC–MS)
As to `CN1[C@@H]2CC[C@H]1C[C@@H](OC(=O)C(CO)c1ccccc1)C2` (stereo partly drawn) [ATROPINE], the “Bacterial Biotransformation” value is reported as “Compound NOT metabolized”.

As for `CN1CCC(OC(c2ccccc2)c2ccccc2)CC1`, the “Bacterial Biotransformation” value is “Compound NOT metabolized”.

The conditions of a further data set: roseburia intestinalis, 12 h, 2 µM.
Description: The drug is tested on Roseburia intestinalis strain: L1-82 for biotransformation. The drug concentrations were measured before and after a 12-h incubation by liquid-chromatography-coupled mass spectrometry (LC–MS)
On to `CN1[C@@H]2CC[C@H]1C[C@@H](OC(=O)C(CO)c1ccccc1)C2` (stereo partly drawn) [ATROPINE], for which the “Bacterial Biotransformation” value was “Compound NOT metabolized”.

For the compound `COc1ccc([C@@H]2Sc3ccccc3N(CCN(C)C)C(=O)[C@@H]2OC(C)=O)cc1` [DILTIAZEM], the “Bacterial Biotransformation” value is “Compound NOT metabolized”.

Consider `CC(=O)CCCCn1c(=O)c2c(ncn2C)n(C)c1=O` [PENTOXIFYLLINE], for which the “Bacterial Biotransformation” value is recorded as “Compound NOT metabolized”.

Turning to `CN1CCC(OC(c2ccccc2)c2ccccc2)CC1`, the “Bacterial Biotransformation” value is recorded as “Compound NOT metabolized”.

For the next data set the following is noted: akkermansia muciniphila, 12 h, 2 µM.
Description: The drug is tested on Akkermansia muciniphila strain: ATCC BAA-835 for biotransformation. The drug concentrations were measured before and after a 12-h incubation by liquid-chromatography-coupled mass spectrometry (LC–MS)
For the compound `CN1[C@@H]2CC[C@H]1C[C@@H](OC(=O)C(CO)c1ccccc1)C2` (stereo partly drawn) [ATROPINE], the “Bacterial Biotransformation” value is “Compound NOT metabolized”.

With `COc1ccc([C@@H]2Sc3ccccc3N(CCN(C)C)C(=O)[C@@H]2OC(C)=O)cc1` [DILTIAZEM], the “Bacterial Biotransformation” value is recorded as “Compound metabolized”.

On to `CC(=O)CCCCn1c(=O)c2c(ncn2C)n(C)c1=O` [PENTOXIFYLLINE], for which the “Bacterial Biotransformation” value is on record as “Compound NOT metabolized”.
